Experimental data published in patent publication US20030207933A1, “Compositions and methods for increasing the sensitivity of apoptosis-resistant tumor cells to inducers of apoptosis” (priority 2002, published 2003).

Key:
bFGF-treated U937 cells = experiment: DNA fragmentation in bFGF-treated U937 cells; type: cell-based; conditions: 1 ng/ml bFGF 20 h pretreatment; FIG. 9
Method: Another means by which cells may evade apoptosis is by treatment with various growth factors. To assess the ability of W-188 to reverse the apoptosis resistance induced by growth factors, U937 cells were treated ±1 ng/ml basic fibroblast growth factor (bFGF) for 20 h, then exposed to etoposide or TNF and DNA fragmentation measured.

LY-ar cells = experiment: 10 day colony formation assay, LY-ar; type: cell-based, murine; conditions: not shown
Source text: LY-ar was highly resistant to apoptosis induced by y-radiation. […] The apparent selective effects of W-188 may be due to the preferential intracellular accumulation of porphyrin compounds in transformed cells as opposed to normal cells reported previously (Bugelski, P. J., et al., Cancer Res., 1981, 41:4606).

RIF-1 fibrosarcoma = RIF-1 fibrosarcoma tumor growth in vivo; design: species or system mice; conditions: for Effect on tumor growth: five i.p. injections
Source text: The present study tested in the ability of W-188 to synergize with Dox and inhibit tumor growth in vivo. The RIF-1 fibrosarcoma model was used because this model has been well-characterized, and naturally expresses high Bcl-2 levels and has a consistent growth pattern (Nahabedian, M. Y., et al., J. Natl. Can. Inst., 1988, 80:739; Chang, M-J., et al., Cancer Res., 1994, 54:5380; Srivastana, M., et al., J. Biol. Chem., 2001, 276:15481).
Groups of five mice each were inoculated s.c. with RIF-1 cells. The tumors were allowed to grow for 12 days to a size of 0.5 cm diameter, which was designated day 0. The mice were then given five i.p. injections every other day with vehicle, Dox 2.5 mg/kg, Dox 5.0 mg/kg, W-188 100 mg/kg, and Dox 5.0 mg/kg+W-188 100 mg/kg. The mice were weighed and the tumor size measured every day.
The protocol was similar to that described for the W-188 experiment in Example 8, except that in this study, mice with established tumors received only three injections of W-143 or Dox every other day starting on day 0.

## CCC1=C(C)C(/C=C2\NC(=O)C(C)=C2CC)=NC/1=C\c1[nH]c(/C=C2\NC(=O)C(C)=C2CC)c(C)c1CC [W-188, etiobiliverdin-IV]
bFGF-treated U937 cells
  Reversal of bFGF-induced resistance to etoposide or TNF-induced DNA fragmentation: completely reversed resistance to apoptosis
LY-ar cells
  Sensitization to cell death mediated by etoposide and chlorambucil: sensitized HL-60-Bcl-2 and LY-ar cells to cell death mediated by etoposide and chlorambucil
RIF-1 fibrosarcoma; W-188 100 mg/kg + Dox 5.0 mg/kg
  Effect on tumor growth: synergistically inhibited tumor growth
RIF-1 fibrosarcoma; W-188 100 mg/kg + Dox 5.0 mg/kg, day 12, p=0.0005
  Tumor size relative to vehicle control: only half the size of the vehicle control
RIF-1 fibrosarcoma; W-188 100 mg/kg alone, data not shown
  Effect on tumor growth: no effect on tumor growth
